Results taken from US20190159450A1, “PYRIDINE-BASED COMPOUND INCLUDING ISOXAZOLINE RING AND USE THEREOF AS HERBICIDE” (MOGHU RESEARCH CENTER LTD., priority 2016, published 2019).

Tests used:
Assay type in all cases: in vivo
[1] = tested on: wheat; assay: Herbicidal activity test, pre-weeds emergence treatment (crop damage); conditions: assessed 2 to 3 weeks after spraying, scale 0-10 (0: no effect, 10: complete death)
Protocol: (§1) A rectangular plastic pot with a surface area of 300 cm^2 was filled with sandy loam soil and mixed soil at a ratio of 1:1, and four kinds of weeds including Quamoclit pennata, Abutilon theophrasti Medicus, and Aeschynomene indica, Xanthium strumarium were sown therein. In another pot made in the same way, three kinds of crop seeds including maize, wheat, and rice were sown. The pots were watered and one day later, a medicament was sprayed thereon. The spraying was performed by using a track sprayer (R&D Sprayer, USA) equipped with Teejet 8002EVS (Spraying Systems Co., USA) nozzle, and the spray amount was controlled to be 1000 L/ha. A spray solution was prepared by dissolving the compound of each example or a control material in acetone, and then, adding the same amount of 0.1% (v/v) tween 20 aqueous solution thereto. The spray amount was 200 g/ha. The pots were placed in a greenhouse in which the temperature was maintained at 25° C. to 30° C. during the day and 15° C. to 25° C. during the night, and was regularly watered. After 2 to 3 weeks from the spraying of the compounds or the control material, the efficacy and the damages on each weed and each crop were assessed according to the scale of 0-10 (0: no effect, 10: complete death) scale and the results are shown in Table 3 below.
(§2) Pots for crops and weeds were prepared in the same manner as the test method illustrated in Table 3, and three kinds of weeds selected from Quamoclit pennata, Abutilon theophrasti Medicus, and Aeschynomene indica, Xanthium strumarium were used.

[2] = tested on: maize; assay: as above; conditions: assessed 2 to 3 weeks after spraying, scale 0-10 (0: no effect, 10: complete death)
Protocol: as §1, §2

[3] = tested on: rice; assay: as above; conditions: assessed 2 to 3 weeks after spraying, scale 0-10 (0: no effect, 10: complete death)
Protocol: as §1, §2

[4] = tested on: wheat; assay: Herbicidal activity test, post-weeds emergence treatment (crop damage); conditions: assessed after 2 to 3 weeks, 0: no effect, 10: complete death
Protocol: as §1
(§3) Pots for crops and weeds were prepared in the same manner as in Experimental Example 1, and then, when the crops and the weeds were raised up to 2 weeks roughly on a third-leaf stage, the compounds and the control material were sprayed thereon in the same manner as described above. The spray amount was 200 g/ha. After 2 to 3 weeks from the spraying of the test substance or the control substance, the efficacy and the damages on each weed and each crop were assessed according to the scale of 0-10 (0: no effect, 10: complete death) scale.
(§4) Pots for crops and weeds were prepared in the same manner as the test method illustrated in Table 5, and four kinds of weeds selected from Quamoclit pennata, Abutilon theophrasti Medicus, and Aeschynomene indica, Xanthium strumarium were used. The spray amount was 200 g/ha for crops and 50 g/ha for weeds.

[5] = tested on: maize; assay: as above; conditions: assessed after 2 to 3 weeks, 0: no effect, 10: complete death
Protocol: as §1, §3, §4

[6] = tested on: rice; assay: as above; conditions: assessed after 2 to 3 weeks, 0: no effect, 10: complete death
Protocol: as §1, §3, §4

[7] = tested on: Aeschynomene indica; assay: Herbicidal activity test, post-weeds emergence treatment; conditions: assessed after 2 to 3 weeks, 0: no effect, 10: complete death
Protocol: as §1, §3, §4

[8] = tested on: Xanthium strumarium; assay: as above; conditions: assessed after 2 to 3 weeks, 0: no effect, 10: complete death
Protocol: as §1, §3, §4

[9] = tested on: Quamoclit pennata; assay: as above; conditions: assessed after 2 to 3 weeks, 0: no effect, 10: complete death
Protocol: as §1, §3, §4

[10] = tested on: Abutilon theophrasti Medicus; assay: as above; conditions: assessed after 2 to 3 weeks, 0: no effect, 10: complete death
Protocol: as §1, §3, §4

[11] = tested on: Aeschynomene indica; assay: Herbicidal activity test, pre-weeds emergence treatment; conditions: assessed 2 to 3 weeks after spraying, scale 0-10 (0: no effect, 10: complete death)
Protocol: as §1, §2

[12] = tested on: Xanthium strumarium; assay: as above; conditions: assessed 2 to 3 weeks after spraying, scale 0-10 (0: no effect, 10: complete death)
Protocol: as §1, §2

[13] = tested on: Quamoclit pennata; assay: as above; conditions: assessed 2 to 3 weeks after spraying, scale 0-10 (0: no effect, 10: complete death)
Protocol: as §1, §2

[14] = tested on: Abutilon theophrasti Medicus; assay: as above; conditions: assessed 2 to 3 weeks after spraying, scale 0-10 (0: no effect, 10: complete death)
Protocol: as §1, §2

[15] = spray amount 200 g/ha for crops, Table 6
[16] = spray amount 50 g/ha for weeds, Table 6

SMILES | PRE TRZAW (wheat), damage score ([1]; Table 4, 200 g/ha) | PRE ZEAMX (maize), damage score ([2]; Table 4, 200 g/ha) | PRE ORYSA (rice), damage score ([3]; Table 4, 200 g/ha) | TRZAW (wheat) damage, scale of 0-10 [4, 15] | ZEAMX (maize) damage, scale of 0-10 [5, 15] | ORYSA (rice) damage, scale of 0-10 [6, 15] | AESIN (Aeschynomene indica) herbicidal efficacy, scale of 0-10 [7, 16] | XANST (Xanthium strumarium) herbicidal efficacy, scale of 0-10 [8, 16] | IPOAN (Quamoclit pennata) herbicidal efficacy, scale of 0-10 [9, 16] | ABUTH (Abutilon theophrasti Medicus) herbicidal efficacy, scale of 0-10 [10, 16] | PRE AESIN (Aeschynomene indica), efficacy score ([11]; Table 4, 200 g/ha) | PRE XANST (Xanthium strumarium), efficacy score ([12]; Table 4, 200 g/ha) | PRE IPOAN (Quamoclit pennata), efficacy score ([13]; Table 4, 200 g/ha) | PRE ABUTH (Abutilon theophrasti Medicus), efficacy score ([14]; Table 4, 200 g/ha) | other results
COc1ccc(COC(=O)c2nc(C3CC(Br)=NO3)cc(N)c2Cl)cc1 (stereo not shown) [Compound 89, 4-methoxybenzyl 4-amino-6-(3-bromo-4,5-dihydroisoxazol-5-yl)-3-chloropicolinate] | 0 | 0 | 0 | 0 | 0 | 0 | 8 | 9 | 5 | 6 | 10 | 10 | 8 | 8 | 
Nc1cc(C2CC(Br)=NO2)nc(C(=O)Oc2ccccc2)c1Cl (stereo not shown) [Compound 85, phenyl 4-amino-3-chloro-6-(3-bromo-4,5-dihydroisoxazol-5-yl)picolinate] | 0 | 0 | 0 | 0 | 0 | 0 | 9 | 10 | 5 | 5 | 10 | 10 | 6 | 8 | 
COC(=O)c1nc(C2CC(Br)=NO2)cc(N)c1Cl (stereo not shown) [Compound 33, methyl 4-amino-3-chloro-6-(3-bromo-4,5-dihydroisoxazol-5-yl)picolinate] | 0 | 2 | 0 | 0 | 0 | 0 | 9 | 10 | 5 | 7 | 10 | 10 | 6 | 6 | 
Nc1cc(C2CC(Br)=NO2)nc(C(=O)OCc2ccc(Br)cc2)c1Cl (stereo not shown) [Compound 91, 4-bromobenzyl 4-amino-6-(3-bromo-4,5-dihydroisoxazol-5-yl)-3-chloropicolinate] | 0 | 0 | 0 | 0 | 0 | 0 | 6 | 10 | 5 | 5 | 6 | 6 | 2 | 10 | 
Cc1ccc(COC(=O)c2nc(C3CC(Br)=NO3)cc(N)c2Cl)cc1 (stereo not shown) [Compound 87, 4-methylbenzyl 4-amino-6-(3-bromo-4,5-dihydroisoxazol-5-yl)-3-chloropicolinate] | 0 | 0 | 0 | 0 | 1 | 0 | 9 | 10 | 4 | 6 | 9 | 5 | 7 | 6 | 
CCOC(=O)c1nc(C2CC(Br)=NO2)cc(N)c1Cl (stereo not shown) [Compound 73, ethyl 4-amino-6-(3-bromo-4,5-dihydroisoxazol-5-yl)-3-chloropicolinate] | 0 | 0 | 0 | 1 | 0 | 0 | 9 | 9 | 4 | 6 | 10 | 9 | 6 | 10 | 
Nc1c(Cl)c(F)nc(OCC(=O)O)c1Cl [fluroxypyr, reference compound] | 3 | 4 | 8 | 0 | 3 | 3 | 3 | 10 | 6 | 7 | 10 | 9 | 9 | 7 | PRE TRZAW (wheat), damage score ([1]; Table 3, 200 g/ha): 3; PRE ZEAMX (maize), damage score ([2]; Table 3, 200 g/ha): 3; PRE ORYSA (rice), damage score ([3]; Table 3, 200 g/ha): 8; TRZAW (wheat) damage, scale of 0-10 ([4]; spray amount 200 g/ha, Table 5): 3; ZEAMX (maize) damage, scale of 0-10 ([5]; spray amount 200 g/ha, Table 5): 0; ORYSA (rice) damage, scale of 0-10 ([6]; spray amount 200 g/ha, Table 5): 4; AESIN (Aeschynomene indica) herbicidal efficacy, scale of 0-10 ([7]; spray amount 200 g/ha, Table 5): 10; XANST (Xanthium strumarium) herbicidal efficacy, scale of 0-10 ([8]; spray amount 200 g/ha, Table 5): 10; IPOAN (Quamoclit pennata) herbicidal efficacy, scale of 0-10 ([9]; spray amount 200 g/ha, Table 5): 8; ABUTH (Abutilon theophrasti Medicus) herbicidal efficacy, scale of 0-10 ([10]; spray amount 200 g/ha, Table 5): 10; PRE AESIN (Aeschynomene indica), efficacy score ([11]; Table 3, 200 g/ha): 9; PRE XANST (Xanthium strumarium), efficacy score ([12]; Table 3, 200 g/ha): 9; PRE IPOAN (Quamoclit pennata), efficacy score ([13]; Table 3, 200 g/ha): 9; PRE ABUTH (Abutilon theophrasti Medicus), efficacy score ([14]; Table 3, 200 g/ha): 7
